Marks after values point to notes of the source that are not given here.
Columns and labels:
Plasmopara viticola = assay: Test D: grape downy mildew, spray after inoculation of grape seedlings; format: in vivo
From the text: Upon removal, disease ratings were made. […] A dash (-) indicates no test results.

Phytophthora infestans = assay: whole plant or invertebrate; format: in vivo
Septoria tritici = assay: Test J: wheat leaf blotch, preventive spray on wheat seedlings; format: in vivo
From the text: A dash (-) indicates no test results.

fusarium graminearium = assay: Test I: wheat head scab, preventive spray on wheat seedlings
Procedure: (the causal agent of wheat head scab) and incubated in a saturated atmosphere at 20° C. for 72 h, and then moved to a growth chamber at 22° C. for 5 days, after which disease ratings were made.

[1] = tested on: Puccinia recondita f. sp. tritici; assay: Test K: wheat leaf rust, preventive spray on wheat seedlings
Botrytis cinerea = assay: Test E: tomato botrytis, preventive spray on tomato seedlings
Septoria nodorum = assay: Test H: wheat glum blotch, preventive spray on wheat seedlings
Procedure: (the causal agent of wheat glum blotch) and incubated in a saturated atmosphere at 20° C. for 48 h, and then moved to a growth chamber at 22° C. for 5 days, after which disease ratings were made.

[2] = tested on: Erysiphe graminis f. sp. tritici; assay: Test L: wheat powdery mildew, preventive spray on wheat seedlings
Sclerotinia sclerotiorum = assay: Test C: cucumber white mold, preventive spray on cucumber seedlings
Pythium aphanidermatum = assay: Test A: bluegrass pythium blight, preventive spray on bluegrass seedlings
Rhizoctonia oryzae = assay: Test G: turf brown patch, preventive spray on creeping bent grass seedlings
Procedure: (the causal agent of turf brown patch) and incubated in a saturated atmosphere at 27° C. for 24 h, and then moved to a growth chamber at 27° C. for 5 days, after which disease ratings were made.

[3] = tested on: Colletotrichum orbiculare; assay: Test B: cucumber Colletotrichum anthracnose, preventive spray on cucumber seedlings

| Structure (SMILES) | Test D disease control rating (Plasmopara viticola; 40 ppm (*)) | Test F disease control rating (Phytophthora infestans; 40 ppm (*)) | Test J disease control rating (Septoria tritici; 40 ppm (*)) | Test I disease control rating (fusarium graminearium; 40 ppm (*)) | Test K disease control rating ([1]; 40 ppm (*)) | Test E disease control rating (Botrytis cinerea; 40 ppm (*)) | Test H disease control rating (Septoria nodorum; 40 ppm (*)) | Test L disease control rating ([2]; 40 ppm (*)) | Test C disease control rating (Sclerotinia sclerotiorum; 40 ppm (*)) | Test A disease control rating (Pythium aphanidermatum; 40 ppm (*)) | Test G disease control rating (Rhizoctonia oryzae; 40 ppm (*)) | Test B disease control rating ([3]; 40 ppm (*)) | also measured |
| --- | --- | --- | --- | --- | --- | --- | --- | --- | --- | --- | --- | --- | --- |
| COC(=O)c1ccc(-c2c(Cl)nc(-n3cncn3)c(=O)n2CC(C)C)cc1 [compound 146] | 0* % | 0* % | 5* % | 0* % | 0* % | 0* % | 0* % | 0* % | 0* % | 0* % | 0* % | 0* % |  |
| COC(=O)c1ccc(-c2c(Cl)nc(-n3cccn3)c(=O)n2CC(C)C)cc1 [compound 147] |  |  |  |  |  |  |  |  |  |  |  |  | Test D disease control rating (Plasmopara viticola; 200 ppm): 92%; Test F disease control rating (Phytophthora infestans; 200 ppm): 93%; Test J disease control rating (Septoria tritici; 200 ppm): 96%; Test I disease control rating (fusarium graminearium; 200 ppm): 0%; Test K disease control rating ([1]; 200 ppm): 80%; Test E disease control rating (Botrytis cinerea; 200 ppm): 97%; Test H disease control rating (Septoria nodorum; 200 ppm): 0%; Test L disease control rating ([2]; 200 ppm): 0%; Test C disease control rating (Sclerotinia sclerotiorum; 200 ppm): 0%; Test A disease control rating (Pythium aphanidermatum; 200 ppm): 0%; Test G disease control rating (Rhizoctonia oryzae; 200 ppm): 0%; Test B disease control rating ([3]; 200 ppm): 0% |
| CC(C)Cn1c(-c2ccccc2)c(Cl)nc(-n2cccn2)c1=O [compound 172] | 0* % | 57* % | 64* % | 0* % | 0* % | 07* % | 0* % | 0* % | 0* % | 0* % | 41* % | 0* % |  |
| CC(C)Cn1c(-c2ccccc2)c(Cl)nc(-n2cncn2)c1=O [compound 173] | 0* % | 0* % | 45* % | 0* % | 0* % | 0* % | 0* % | 0* % | 0* % | 0* % | 0* % | 0* % |  |
| COc1ccccc1-c1c(Cl)nc(-n2cncn2)c(=O)n1CC(C)C [compound 177] | 0* % | 0* % | 7* % | 0* % | 0* % | 0* % | 0* % | 0* % | 0* % | 0* % | 0* % | 0* % |  |
| CC(C)Cn1c(-c2cccc(F)c2)c(Cl)nc(-n2cncn2)c1=O [compound 230] | 0* % | 0* % | 24* % | 0* % | 0* % | 82* % | 0* % | 0* % | 0* % | 0* % | 0* % | 0* % |  |
| CC(C)Cn1c(-c2cccc(F)c2)c(Cl)nc(-n2cccn2)c1=O [compound 231] | 0* % | 0* % | 89* % | 0* % | 28* % | 99* % | 0* % | 0* % | 0* % | 0* % | 0* % | 0* % |  |
